Data reported in US12686687B2, “Compounds and uses thereof” (Foghorn Therapeutics Inc., priority 2019, dated 2026).
Read-outs that look alike come from different tables or passages of the source.

Biological target: T1, Nanoluciferase-BRD9 fusion protein (3×FLAG-NLuc-BRD9) in SYO-1 cells (Homo sapiens, UniProt Q9H8M2)
T1 construct: expressed in transfected cells; host or cells: SYO-1
T1 sequence (Q9H8M2 1-597): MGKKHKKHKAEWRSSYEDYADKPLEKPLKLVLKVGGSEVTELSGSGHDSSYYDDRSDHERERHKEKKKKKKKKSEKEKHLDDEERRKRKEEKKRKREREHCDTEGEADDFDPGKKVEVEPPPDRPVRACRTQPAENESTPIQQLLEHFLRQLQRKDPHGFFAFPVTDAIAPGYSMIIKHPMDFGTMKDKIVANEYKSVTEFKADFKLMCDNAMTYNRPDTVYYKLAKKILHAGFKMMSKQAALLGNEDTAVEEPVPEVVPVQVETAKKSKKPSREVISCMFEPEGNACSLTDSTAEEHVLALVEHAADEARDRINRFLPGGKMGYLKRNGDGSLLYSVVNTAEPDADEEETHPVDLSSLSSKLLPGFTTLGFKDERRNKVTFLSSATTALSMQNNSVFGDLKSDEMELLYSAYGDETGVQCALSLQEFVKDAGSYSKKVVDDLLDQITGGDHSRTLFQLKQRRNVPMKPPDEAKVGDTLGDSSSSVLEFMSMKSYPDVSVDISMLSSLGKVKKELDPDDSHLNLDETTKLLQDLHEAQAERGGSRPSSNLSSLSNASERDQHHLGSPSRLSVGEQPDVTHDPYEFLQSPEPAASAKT
Test: SYO1 BRD9 NanoLuc degradation assay
Type: cell-based
Details: SYO-1 cells expressing 3×FLAG-NLuc-BRD9, 6 hours incubation, 1 μM top dose, read-out: SYO1 BRD9-NanoLuc degradation IC50
Summary of the method: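 Stable SYO-1 line expressing 3×FLAG-NLuc-BRD9 was seeded at 8000 cells/well, then treated next day for 6 h with 10-point 3-fold dilutions (top 1 μM final). Nano-Glo luminescence was read. % inhibition was normalised to DMSO (high control) and 1 μM reference BRD9 degrader (low control).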

Compound | DC50 (Table 6B) | DC50 (Table 6C)
COc1cc(-c2cn(C)c(=O)c3cc(C(=O)NC4CCC5CN(CCN6CCN(c7ccc8c(c7)C(=O)N(C7CCC(=O)NC7=O)C8=O)CC6)CC54)sc23)cc(OC)c1CN(C)C (stereo not shown) [Compound D38] | < 10 nM | –
COc1cc(OC)cc(-c2cn(C)c(=O)c3cc(C(=O)NC4CCN(c5ccc6c(c5)C(=O)N(C5CCC(=O)NC5=O)C6)CC4)sc23)c1 (stereo not shown) [Compound D109] | – | < 10 nM
COc1cc(-c2cn(C)c(=O)c3cc(C(=O)NC4CCN(C(=O)CN5CCC6(CC5)CN(c5ccc7c(c5)C(=O)N(C5CCC(=O)NC5=O)C7=O)C6)CC4(F)F)sc23)cc(OC)c1CN(C)C (stereo not shown) [Compound D46] | < 10 nM | –
COc1cc(-c2cn(C)c(=O)c3cc(C(=O)NC4CCN(C)CC4)sc23)cc(OC)c1CN(C)CC(=O)NCCOCCOc1cccc2c1C(=O)N(C1CCC(=O)NC1=O)C2=O (stereo not shown) [Compound D32] | > 100 nM | –
COc1cc(-c2cn(C)c(=O)c3cc(C(=O)NC4CCC5(CCN(CCN6CCN(c7ccc8c(c7)C(=O)N(C7CCC(=O)NC7=O)C8=O)CC6)C5)C4)sc23)cc(OC)c1CN(C)C (stereo not shown) [Compound D39] | < 10 nM | –
COc1cc(-c2cn(C)c(=O)c3cc(C(=O)NC4CC5(C4)CN(CCCN4CCN(c6ccc7c(c6)C(=O)N(C6CCC(=O)NC6=O)C7=O)CC4)C5)sc23)cc(OC)c1CN(C)C (stereo not shown) [Compound D75] | < 10 nM | –
COc1cc(-c2cn(C)c(=O)c3cc(C(C)C)sc23)cc(OC)c1CN1CCC2(CC1)CN(c1ccc3c(c1)C(=O)N(C1CCC(=O)NC1=O)C3)C2 (stereo not shown) [Compound D110] | – | < 10 nM
COc1cc(-c2cn(C)c(=O)c3cc(C(=O)NC4CC5CN(C(=O)CCN6CCN(c7ccc8c(c7)C(=O)N(C7CCC(=O)NC7=O)C8=O)CC6)CC5C4)sc23)cc(OC)c1CN(C)C (stereo not shown) [Compound D76] | > 10 nM | –
COc1cc(-c2cn(C)c(=O)c3cc(C(=O)NC4CCCN(CCCCCOc5cccc6c5C(=O)N(C5CCC(=O)NC5=O)C6=O)CC4)sc23)cc(OC)c1CN(C)C (stereo not shown) [Compound D88] | > 10 nM | –
Cn1cc(-c2cccc(C(F)(F)F)c2)c2sc(C(=N)NC3CCS(=O)(=O)N(CC(=O)NCCCCCCCCNc4cccc5c4C(=O)N(C4CCC(=O)NC4=O)C5=O)C3)cc2c1=O (stereo not shown) [Compound D31] | > 10 nM | –
COc1cc(-c2cn(C)c(=O)c3cc(C(=O)NC4CCN(CCN5CCC6(CC5)CN(c5ccc7c(c5)CN(C5CCC(=O)NC5=O)C7=O)C6)CC4(F)F)sc23)cc(OC)c1CN(C)C (stereo not shown) [Compound D19] | < 10 nM | –
COc1cc(-c2cn(C)c(=O)c3cc(C(=O)NC4CCN(CCCCCOc5ccc6c(c5)C(=O)N(C5CCC(=O)NC5=O)C6=O)CC4)sc23)cc(OC)c1CN(C)C (stereo not shown) [Compound D89] | < 10 nM | –
COc1cc(-c2cn(C)c(=O)c3cc(C(=O)NC4CCN(C(=O)CN5CCC6(CC5)CN(c5ccc7c(c5)CN(C5CCC(=O)NC5=O)C7=O)C6)CC4(F)F)sc23)cc(OC)c1CN(C)C (stereo not shown) [Compound D18] | < 10 nM | –
COc1cc(-c2cn(C)c(=O)c3cc(C(=O)NC4CCN(CCCCCOc5ccc6c(c5)C(=O)N(C5CCC(=O)NC5=O)C6=O)CC4(F)F)sc23)cc(OC)c1CN1CCC1 (stereo not shown) [Compound D28] | < 10 nM | –
Cn1cc(-c2cccc(C(F)(F)F)c2)c2sc(C(=O)NC3CN(c4ccc5c(c4)C(=O)N(C4CCC(=O)NC4=O)C5)C3)cc2c1=O (stereo not shown) [Compound D103] | – | < 10 nM
COc1cc(-c2cn(C)c(=O)c3cc(C(=O)NC4CC5(CCN(C(=O)CCN6CCN(c7ccc8c(c7)C(=O)N(C7CCC(=O)NC7=O)C8=O)CC6)CC5)C4)sc23)cc(OC)c1CN(C)C (stereo not shown) [Compound D40] | < 10 nM | –
COc1cc(-c2cn(C)c(=O)c3cc(C(=O)NC4CCN(CCCCCOc5ccc6c(c5)C(=O)N(C5CCC(=O)NC5=O)C6=O)CC4(F)F)sc23)cc(OC)c1CN(C)C (stereo not shown) [Compound D90] | < 10 nM | –

The next lines start with the values.

DC50 (Table 6B) | DC50 (Table 6C) | Compound
– | < 10 nM | [2H]C([2H])([2H])n1cc(-c2cc(OC)c(CN3CCN(c4ccc5c(c4)C(=O)N(C4CCC(=O)NC4=O)C5)CC3)c(OC)c2)c2sccc2c1=O (stereo not shown) [Compound D147]
– | < 10 nM | COc1cc(-c2cn(C)c(=O)c3cc(C(=O)NC4CN(C5CCN(c6ccc7c(c6)CN(C6CCC(=O)NC6=O)C7=O)CC5)CC4(F)F)sc23)cc(OC)c1CN(C)C (stereo not shown) [Compound D181]
– | < 10 nM | COc1cc(-c2cn(C)c(=O)c3cc(C(=O)NC4CCN(CCCCCOc5ccc6c(c5)CN(C5CCC(=O)NC5=O)C6=O)CC4(F)F)sc23)cc(OC)c1CN(C)C (stereo not shown) [Compound D163]
– | < 10 nM | CCc1cc(-c2cn(C)c(=O)c3cc(C(=O)NC4CCN(C5CCN(c6ccc7c(c6)C(=O)N(C6CCC(=O)NC6=O)C7)CC5)CC4(F)F)sc23)cc(OC)c1CN(C)C (stereo not shown) [Compound D157]
– | < 10 nM | COc1cc(-c2cn(C)c(=O)c3cscc23)cc(OC)c1CN1CCC2(CC1)CN(c1ccc3c(c1)C(=O)N(C1CCC(=O)NC1=O)C3)C2 (stereo not shown) [Compound D216]
– | < 10 nM | COc1cc(-c2cn(C)c(=O)c3cc(C(=O)N[C@H]4CCN(c5ccc6c(c5)CN(C5CCC(=O)NC5=O)C6=O)CC4(F)F)sc23)cc(OC)c1CN(C)C (stereo partly shown) [Compound D151]
– | < 10 nM | COc1cc(-c2cn(C)c(=O)c3ccsc23)cc(OC)c1CN1CC(Oc2ccc3c(c2)C(=O)N(C2CCC(=O)NC2=O)C3)C1 (stereo not shown) [Compound D168]
– | < 10 nM | COc1cc(-c2cn(C)c(=O)c3cc(C(=O)N[C@@H]4CCN(C5CCN(c6ccc7c(c6)C(=O)N([C@@H]6CCC(=O)NC6=O)C7)CC5)CC4(F)F)sc23)cc(OC)c1CN(C)C [Compound D135]
– | < 10 nM | COc1cc(-c2cn(C)c(=O)c3cscc23)cc(OC)c1CN1CCC2(CC1)CN(c1ccc3c(c1)C(=O)N(C1CCC(=O)NC1=O)C3=O)C2 (stereo not shown) [Compound D208]
– | < 10 nM | COc1cc(-c2cn(C)c(=O)c3ccsc23)cc(OC)c1CN1CCC(CN2CCC3(CC2)CC(Oc2ccc4c(c2)C(=O)N(C2CCC(=O)NC2=O)C4)C3)CC1 (stereo not shown) [Compound D174]
– | < 10 nM | COc1cc(-c2cn(C)c(=O)c3cc(C(=O)NC4CCN(C5CCN(c6ccn7c(=O)n(C8CCC(=O)NC8=O)nc7c6)CC5)CC4(F)F)sc23)cc(OC)c1CN(C)C (stereo not shown) [Compound D179]
– | < 10 nM | COc1cc(-c2cn(C)c(=O)c3cc(C(=O)NC4CCN(c5ccc6c(c5)C(=O)N(C5CCC(=O)NC5=O)C6)CC4(F)F)sc23)cc(OC)c1CN(C)C (stereo not shown) [Compound D165]
– | < 10 nM | COc1cc(-c2cn(C)c(=O)c3ccsc23)cc(OC)c1CN1CCC2(CN(c3ccc4c(c3)C(=O)N(C3CCC(=O)NC3=O)C4)C2)C(F)(F)C1 (stereo not shown) [Compound D111]
– | < 10 nM | COc1cc(-c2cn(C)c(=O)c3ccsc23)cc(OC)c1CN1[C@H](C)CN(c2ccc3c(c2)C(=O)N(C2CCC(=O)NC2=O)C3)C[C@H]1C (stereo partly shown) [Compound D144]
– | < 10 nM | COc1cc(-c2cn(C)c(=O)c3cc(C(=O)N[C@H]4CCN(CCN5CCN(c6ccc7c(c6)C(=O)N(C6CCC(=O)NC6=O)C7)CC5)CC4(F)F)sc23)cc(OC)c1CN(C)C (stereo partly shown) [Compound D112]
– | < 10 nM | COc1cc(-c2cn(C)c(=O)c3c(C)csc23)cc(OC)c1CN1CCC(CN2CCC3(CC2)CC(Oc2ccc4c(c2)C(=O)N(C2CCC(=O)NC2=O)C4=O)C3)CC1 (stereo not shown) [Compound D160]
– | < 10 nM | COc1cc(OC)cc(-c2cn(C)c(=O)c3cc(C(=O)NC4CCN(c5ccc6c(c5)C(=O)N(C5CCC(=O)NC5=O)C6)CC4(F)F)sc23)c1 (stereo not shown) [Compound D131]
